Patent publication US8691827B2, “Amino tetrahydro-pyridopyrimidine PDE10 inhibitors” (Merck Sharp & Dohme Corp., priority 2009, dated 2014)

Target: human PDE10A2 (Homo sapiens (Human), UniProt Q9Y233)
Assay: PDE10 fluorescence polarization (IMAP FP) inhibition assay
Assay type: biochemical
Conditions: FAM-labeled cAMP 50 nM, room temperature, read-out: PDE10A Ki
Protocol: The activity of the compounds in accordance with the present invention as PDE10 inhibitors may be readily determined without undue experimentation using a fluorescence polarization (FP) methodology that is well known in the art (Huang, W., et al., J. Biomol Screen, 2002, 7: 215).
In a typical experiment the PDE10 inhibitory activity of the compounds of the present invention was determined in accordance with the following experimental method. PDE10A2 was amplified from human fetal brain cDNA (Clontech, Mountain View, Calif.) using a forward primer corresponding to nucleotides 56-77 of human PDE10A2 (Accession No. AF127480, Genbank Identifier 4894716), containing a Kozak consensus sequence, and a reverse primer corresponding to nucleotides 2406-2413 of human PDE10A2 (Accession No. AF127480, Genbank Identifier 4894716). Amplification with Easy-A polymerase (Stratagene, La Jolla, Calif.) was 95° C. for 2 minutes followed by thirty three cycles of 95° C. for 40 seconds, 55° C. for 30 seconds, and 72° C. for 2 minutes 48 seconds. Final extension was 72° C. for 7 minutes. The PCR product was TA cloned into pcDNA3.2-TOPO (Invitrogen, Carlsbad, Calif.) according to standard protocol. AD293 cells with 70-80% confluency were transiently transfected with human PDE10A2/pcDNA3.2-TOPO using Lipofectamine 2000 according to manufacturer specifications (Invitrogen, Carlsbad, Calif.). Cells were harvested 48 hours post-transfection and lysed by sonication (setting 3, 10×5 sec pulses) in a buffer containing 20 mM HEPES, 1 mM EDTA and protease inhibitor cocktail (Roche). Lysate was collected by centrifugation at 75,000×g for 20 minutes. Supernatant containing the cytoplasmic fraction was used for evaluation of PDE10A2 activity. The fluorescence polarization assay for cyclic nucleotide phosphodiesterases was performed using an IMAP® FP kit supplied by Molecular Devices, Sunnyvale, Calif. (product # R8139). IMAP® technology has been applied previously to phosphodiesterase assays (Huang, W., et al., J. Biomol Screen, 2002, 7: 215). Assays were performed at room temperature in 384-well microtiter plates with an incubation volume of 20.2 μL. Solutions of test compounds were prepared in DMSO and serially diluted with DMSO to yield 8 μL of each of 10 solutions differing by 3-fold in concentration, at 32 serial dilutions per plate. 100% inhibition is determined using a known PDE10 inhibitor, which can be any compound that is present at 5,000 times its Ki value in the assay described as follows, such as papaverine (see Siuciak, et al. Neuropharmacology (2006) 51:386-396; Becker, et al. Behav Brain Res (2008) 186(2):155-60; Threlfell, et al., J Pharmacol Exp Ther (2009) 328(3):785-795), 2-{4-[pyridin-4-yl-1-(2,2,2-trifluoroethyl)-1H-pyrazol-3-yl]phenoxymethyl}quinoline succinic acid or 2-[4-(1-methyl-4-pyridin-4-yl-1H-pyrazol-3-yl)-phenoxymethyl]quinoline succinic acid (see Schmidt, et al. J Pharmacol Exp Ther (2008) 325:681-690; Threlfell, et al., J Pharmacol Exp Ther (2009) 328(3): 785-795). 0% of inhibition is determined by using DMSO (1% final concentrations). A Labcyte Echo 555 (Labcyte, Sunnyvale, Calif.) is used to dispense 200 nL from each well of the titration plate to the 384 well assay plate. A solution of enzyme ( 1/1600 dilution from aliquots; sufficient to produce 20% substrate conversion) and a separate solution of FAM-labeled cAMP PDE from Molecular Devices (product # R7506), at a final concentration of 50 nM are made in the assay buffer (10 mM Tris HCl, pH 7.2, 10 mM MgCl2, 0.05% NaN3 0.01% Tween-20, and 1 mM DTT). The enzyme and the substrate are then added to the assay plates in two consecutive additions of 10 μL, and then shaken to mix. The reaction is allowed to proceed at room temperature for 30 minutes. A binding solution is then made from the kit components, comprised of 80% Solution A, 20% Solution B and binding reagent at a volume of 1/600 the total binding solution. […]

Chain of human PDE10A2 (Q9Y233 267-1055): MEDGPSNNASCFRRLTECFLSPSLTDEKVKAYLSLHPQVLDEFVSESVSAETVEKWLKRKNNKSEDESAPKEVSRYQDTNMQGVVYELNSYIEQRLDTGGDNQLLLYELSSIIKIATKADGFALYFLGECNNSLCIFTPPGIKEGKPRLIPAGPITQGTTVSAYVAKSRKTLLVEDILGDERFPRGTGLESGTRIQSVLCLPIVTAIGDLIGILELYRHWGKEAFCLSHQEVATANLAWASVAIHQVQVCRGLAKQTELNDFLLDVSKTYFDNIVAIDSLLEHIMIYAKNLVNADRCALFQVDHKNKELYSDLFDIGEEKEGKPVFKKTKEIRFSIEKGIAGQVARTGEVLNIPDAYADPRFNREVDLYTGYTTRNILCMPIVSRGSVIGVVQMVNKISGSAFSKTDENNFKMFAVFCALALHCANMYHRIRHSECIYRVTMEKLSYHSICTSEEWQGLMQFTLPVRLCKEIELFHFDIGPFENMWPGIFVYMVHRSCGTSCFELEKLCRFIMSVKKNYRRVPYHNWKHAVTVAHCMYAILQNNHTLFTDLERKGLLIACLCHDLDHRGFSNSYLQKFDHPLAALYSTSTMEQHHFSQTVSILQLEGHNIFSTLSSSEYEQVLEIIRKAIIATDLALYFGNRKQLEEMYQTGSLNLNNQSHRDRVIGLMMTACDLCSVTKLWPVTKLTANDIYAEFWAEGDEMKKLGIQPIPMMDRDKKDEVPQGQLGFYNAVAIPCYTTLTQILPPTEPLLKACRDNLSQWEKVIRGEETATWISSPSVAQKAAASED

`COc1cccc(C2CN(c3nc(-c4cccnc4)nc4c3CN(C(=O)Nc3ccccc3)CC4)CCN2)c1` (stereo not drawn) [Compound 1-4, 4-[3-(3-methoxyphenyl)-piperazin-1-yl]-N-phenyl-2-pyridin-3-yl-7,8-dihydropyrido[4,3-d]pyrimidine-6(5H)-carboxamide] was tested, and the Ki was 153 nM.
`COC(=O)NCCNc1nc(-c2cccnc2)nc2c1CN(C(=O)Nc1ccccc1)CC2` [Compound 1-5, methyl-(2-{[6-(anilinocarbonyl)-2-pyridin-3-yl-5,6,7,8-tetrahydropyrido[4,3-d]pyrimidin-4-yl]amino}ethyl)carbamate] showed a Ki of 95.3 nM.
In the case of `O=C(Nc1ccccc1)N1CCc2nc(-c3cccnc3)nc(NCc3c[nH]c(-c4ccccc4)n3)c2C1` [Compound 1-9, N-phenyl-4-{[(2-phenyl-1H-imidazol-4-yl)methyl]amino}-2-(pyridin-3-yl)-7,8-dihydropyrido[4,3-d]pyrimidine-6(5H)-carboxamide], the Ki is reported as 2.19 nM.
Compound `O=C(Nc1ccccc1)N1CCc2nc(-c3ccncc3)nc(NCCc3ccccn3)c2C1` [Compound 1-1, N-phenyl-2-pyridin-4-yl-4-[(2-pyridin-2-ylethyl)amino]-7,8-dihydropyrido[4,3-d]pyrimidine-6(5H)-carboxamide] has a Ki of 47.9 nM.
`CC(C)CC(=O)N1CCc2nc(-c3cncc(-c4cn[nH]c4)c3)nc(N(C)Cc3ccccc3)c2C1` [Compound 1-8, 1-{4-[benzyl(methyl)amino]-2-[5-(1H-pyrazol-4-yl)pyridin-3-yl]-7,8-dihydropyrido[4,3-d]pyrimidin-6(5H)-yl}-3-methylbutan-1-one] gave a Ki of 15 nM.
Compound `O=C(Nc1ccccc1)N1CCc2nc(-c3ccc(F)nc3)nc(NCCc3ccccn3)c2C1` [Compound 1-6, 2-(6-fluoropyridin-3-yl)-N-phenyl-4-[(2-pyridin-2-ylethyl)amino]-7,8-dihydropyrido[4,3-d]pyrimidine-6(5H)-carboxamide] has a Ki of 114 nM.
`O=C(Nc1ccccc1)N1CCc2nc(-c3ccncc3)nc(NCc3ccccn3)c2C1` [Compound 1-2, N-phenyl-2-pyridin-4-yl-4-[(pyridin-2-ylmethyl)amino]-7,8-dihydropyrido[4,3-d]pyrimidine-6(5H)-carboxamide] gave a Ki of 192 nM.
`CC(C)CC(=O)N1CCc2nc(-c3cncc(-c4cncnc4)c3)nc(N(C)Cc3ccccc3)c2C1` [Compound 1-7, 1-{4-[benzyl(methyl)amino]-2-[5-(pyrimidin-5-yl)pyridin-3-yl[-7,8-dihydropyrido]4,3-d]pyrimidin-6(5H)-yl}-3-methylbutan-1-one] gave a Ki of 63 nM.
With `O=C(Nc1ccccc1)N1CCc2nc(-c3ccncc3)nc(N3CCc4ccncc4C3)c2C1` [Compound 1-3, 4-(3,4-dihydro-2,7-naphthyridin-2(1H)-yl)-N-phenyl-2-pyridin-4-yl-7,8-dihydropyrido[4,3-d]pyrimidine-6(5H)-carboxamide] the Ki was 162 nM.
